In ChEMBL document CHEMBL3352567, “Radiosynthesis and ex vivo evaluation of [(18)F]-(S)-3-(6-(3-fluoropropoxy)benzo[d]isoxazol-3-yl)-5-(methoxymethyl)oxazolidin-2-one for imaging MAO-B with PET” (Bioorg Med Chem Lett, 2015):

Columns and labels:
Cerebellum [1] = test: Drug uptake in conscious Sprague-Dawley rat cerebellum at < 10 nmol/kg, tail-vein injections at 15 mins in presence of 2 mg/kg, ip L-deprenyl inhibitor for 1 hr; type: ADME, organism-based; parameters: dose 2 mg/kg, route intraperitoneal; conditions: in vivo, 0.25 h
Brain [2] = test: Drug uptake in conscious Sprague-Dawley rat brain region at < 10 nmol/kg, tail-vein injections at 15 mins in presence of 2 mg/kg, ip L-deprenyl inhibitor for 1 hr; type: ADME, organism-based; parameters: dose 2 mg/kg, route intraperitoneal; conditions: in vivo, 0.25 h
Striatum [3] = test: Drug uptake in conscious Sprague-Dawley rat striatum at < 10 nmol/kg, tail-vein injections at 40 mins in presence of 2 mg/kg, ip L-deprenyl inhibitor for 1 hr; type: ADME, organism-based; parameters: dose 2 mg/kg, route intraperitoneal; conditions: in vivo
Cortex [4] = test: Drug uptake in conscious Sprague-Dawley rat cortex at < 10 nmol/kg, tail-vein injections at 40 mins in presence of 2 mg/kg, ip L-deprenyl inhibitor for 1 hr; type: ADME, organism-based; parameters: dose 2 mg/kg, route intraperitoneal; conditions: in vivo
Cerebellum [5] = test: Drug uptake in conscious Sprague-Dawley rat cerebellum at < 10 nmol/kg, tail-vein injections at 40 mins in presence of 2 mg/kg, ip L-deprenyl inhibitor for 1 hr; type: ADME, organism-based; parameters: dose 2 mg/kg, route intraperitoneal; conditions: in vivo
Brain [6] = test: Drug uptake in conscious Sprague-Dawley rat brain region at < 10 nmol/kg, tail-vein injections at 40 mins in presence of 2 mg/kg, ip L-deprenyl inhibitor for 1 hr; type: ADME, organism-based; parameters: dose 2 mg/kg, route intraperitoneal; conditions: in vivo
[7] = Plasma concentration in conscious Sprague-Dawley rat plasma assessed as radiotracer at < 10 nmol/kg, tail-vein injections at 2 mins; type: ADME; conditions: iv, read-out: Stability
[8] = Plasma concentration in conscious Sprague-Dawley rat plasma assessed as radiotracer at < 10 nmol/kg, tail-vein injections at 40 mins; type: ADME, cell-free; conditions: iv, read-out: Stability
Bone [9] = test: Drug metabolism in conscious Sprague-Dawley rat bone assessed as parent drug level at < 10 nmol/kg, tail-vein injections at 2 mins; type: ADME, tissue-based, Bone element; conditions: in vivo, iv
Bone [10] = test: Drug metabolism in conscious Sprague-Dawley rat bone assessed as parent drug level at < 10 nmol/kg, tail-vein injections at 40 mins; type: ADME, tissue-based, Bone element; conditions: in vivo, iv
Striatum [11] = test: Drug uptake in conscious Sprague-Dawley rat striatum at < 10 nmol/kg, tail-vein injections at 2 mins; type: ADME, tissue-based; conditions: in vivo, iv
Cortex [12] = test: Drug uptake in conscious Sprague-Dawley rat cortex at < 10 nmol/kg, tail-vein injections at 2 mins; type: ADME, tissue-based; conditions: in vivo, iv
Cerebellum [13] = test: Drug uptake in conscious Sprague-Dawley rat cerebellum at < 10 nmol/kg, tail-vein injections at 2 mins; type: ADME, tissue-based; conditions: in vivo, iv
Brain [14] = test: Drug uptake in conscious Sprague-Dawley rat brain region at < 10 nmol/kg, tail-vein injections at 2 mins; type: ADME, tissue-based; conditions: in vivo, iv
Striatum [15] = test: Drug uptake in conscious Sprague-Dawley rat striatum at < 10 nmol/kg, tail-vein injections at 15 mins; type: ADME, tissue-based; conditions: in vivo, iv, 0.25 h
Cortex [16] = test: Drug uptake in conscious Sprague-Dawley rat cortex at < 10 nmol/kg, tail-vein injections at 15 mins; type: ADME, tissue-based; conditions: in vivo, iv, 0.25 h
Cerebellum [17] = test: Drug uptake in conscious Sprague-Dawley rat cerebellum at < 10 nmol/kg, tail-vein injections at 15 mins; type: ADME, tissue-based; conditions: in vivo, iv, 0.25 h
Brain [18] = test: Drug uptake in conscious Sprague-Dawley rat brain region at < 10 nmol/kg, tail-vein injections at 15 mins; type: ADME, tissue-based; conditions: in vivo, iv, 0.25 h
Striatum [19] = test: Drug uptake in conscious Sprague-Dawley rat striatum at < 10 nmol/kg, tail-vein injections at 40 mins; type: ADME, tissue-based; conditions: in vivo, iv
Cortex [20] = test: Drug uptake in conscious Sprague-Dawley rat cortex at < 10 nmol/kg, tail-vein injections at 40 mins; type: ADME, tissue-based; conditions: in vivo, iv
Cerebellum [21] = test: Drug uptake in conscious Sprague-Dawley rat cerebellum at < 10 nmol/kg, tail-vein injections at 40 mins; type: ADME, tissue-based; conditions: in vivo, iv
Brain [22] = test: Drug uptake in conscious Sprague-Dawley rat brain region at < 10 nmol/kg, tail-vein injections at 40 mins; type: ADME, tissue-based; conditions: in vivo, iv
Striatum [23] = test: Drug uptake in conscious Sprague-Dawley rat striatum at < 10 nmol/kg, tail-vein injections at 15 mins in presence of 2 mg/kg, ip L-deprenyl inhibitor for 1 hr; type: ADME, organism-based; parameters: dose 2 mg/kg, route intraperitoneal; conditions: in vivo, 0.25 h
Cortex [24] = test: Drug uptake in conscious Sprague-Dawley rat cortex at < 10 nmol/kg, tail-vein injections at 15 mins in presence of 2 mg/kg, ip L-deprenyl inhibitor for 1 hr; type: ADME, organism-based; parameters: dose 2 mg/kg, route intraperitoneal; conditions: in vivo, 0.25 h
[25] = target: T1, Amine oxidase [flavin-containing] B (Homo sapiens, UniProt P27338); test: Inhibition of human recombinant MAO-B by luminescence analysis
T1 sequence (P27338 whole entry): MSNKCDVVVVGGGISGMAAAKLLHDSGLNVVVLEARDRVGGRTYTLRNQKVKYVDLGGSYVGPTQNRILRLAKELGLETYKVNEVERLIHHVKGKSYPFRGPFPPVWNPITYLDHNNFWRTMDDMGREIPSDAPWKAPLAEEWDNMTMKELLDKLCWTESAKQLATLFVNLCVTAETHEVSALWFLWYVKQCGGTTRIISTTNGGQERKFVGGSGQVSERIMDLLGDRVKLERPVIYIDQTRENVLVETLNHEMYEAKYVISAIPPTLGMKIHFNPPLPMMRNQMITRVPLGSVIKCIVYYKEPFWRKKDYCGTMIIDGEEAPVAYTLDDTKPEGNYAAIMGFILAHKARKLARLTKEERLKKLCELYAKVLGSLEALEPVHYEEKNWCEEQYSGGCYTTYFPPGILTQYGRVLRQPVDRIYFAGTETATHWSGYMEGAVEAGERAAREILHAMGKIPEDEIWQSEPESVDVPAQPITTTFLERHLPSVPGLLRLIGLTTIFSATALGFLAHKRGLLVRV

Homo sapiens = organism: Homo sapiens; test: Selectivity index, ratio of IC50 for human recombinant MAO-B to IC50 for human recombinant MAO-A
[26] = n-Octanol-phosphate buffered saline distribution coefficient, log D of the compound at pH 7.4 by shake flask method; type: physicochemical

SMILES: COC[C@@H]1CN(c2noc3cc(OCCC[18F])ccc23)C(=O)O1
- SUV (Cerebellum [1]): 0.5
- SUV (Brain [2]): 0.5
- SUV (Striatum [3]): 0.2
- SUV (Cortex [4]): 0.2
- SUV (Cerebellum [5]): 0.2
- SUV (Brain [6]): 0.2
- remaining at 2 min [7]: 90%
- remaining at 40 min [8]: 33%
- SUV (Bone [9]): 0.45
- SUV (Bone [10]): 3.1
- SUV (Striatum [11]): 1.7
- SUV (Cortex [12]): 1.7
- SUV (Cerebellum [13]): 1.7
- SUV (Brain [14]): 1.7
- SUV (Striatum [15]): 0.51
- SUV (Cortex [16]): 0.51
- SUV (Cerebellum [17]): 0.51
- SUV (Brain [18]): 0.51
- SUV (Striatum [19]): 0.19
- SUV (Cortex [20]): 0.19
- SUV (Cerebellum [21]): 0.19
- SUV (Brain [22]): 0.19
- SUV (Striatum [23]): 0.5
- SUV (Cortex [24]): 0.5

SMILES: COC[C@@H]1CN(c2noc3cc(OCCCF)ccc23)C(=O)O1
- IC50 [25]: 330 nM
- Ratio IC50 (Homo sapiens): 6
- logD [26]: 2.6

SMILES: COC[C@@H]1CN(c2noc3cc(OCCCCF)ccc23)C(=O)O1
- IC50 [25]: 120 nM
- Ratio IC50 (Homo sapiens): 54

SMILES: COC[C@@H]1CN(c2noc3cc(OCCCC(F)(F)F)ccc23)C(=O)O1
- IC50 [25]: 47 nM
- Ratio IC50 (Homo sapiens): 4680
- logD [26]: 3.34

SMILES: COC[C@@H]1CN(c2noc3cc(OCCCCCF)ccc23)C(=O)O1
- IC50 [25]: 110 nM
- Ratio IC50 (Homo sapiens): 7730
